Biological target: T1, HA-F684A CaSR mutant (Rattus norvegicus, UniProt P48442, F684A)
T1 construct: mGluR5 signal peptide (N); expressed in transfected cells; host or cells: HEK293T
T1 sequence (P48442 20-1079 F684A): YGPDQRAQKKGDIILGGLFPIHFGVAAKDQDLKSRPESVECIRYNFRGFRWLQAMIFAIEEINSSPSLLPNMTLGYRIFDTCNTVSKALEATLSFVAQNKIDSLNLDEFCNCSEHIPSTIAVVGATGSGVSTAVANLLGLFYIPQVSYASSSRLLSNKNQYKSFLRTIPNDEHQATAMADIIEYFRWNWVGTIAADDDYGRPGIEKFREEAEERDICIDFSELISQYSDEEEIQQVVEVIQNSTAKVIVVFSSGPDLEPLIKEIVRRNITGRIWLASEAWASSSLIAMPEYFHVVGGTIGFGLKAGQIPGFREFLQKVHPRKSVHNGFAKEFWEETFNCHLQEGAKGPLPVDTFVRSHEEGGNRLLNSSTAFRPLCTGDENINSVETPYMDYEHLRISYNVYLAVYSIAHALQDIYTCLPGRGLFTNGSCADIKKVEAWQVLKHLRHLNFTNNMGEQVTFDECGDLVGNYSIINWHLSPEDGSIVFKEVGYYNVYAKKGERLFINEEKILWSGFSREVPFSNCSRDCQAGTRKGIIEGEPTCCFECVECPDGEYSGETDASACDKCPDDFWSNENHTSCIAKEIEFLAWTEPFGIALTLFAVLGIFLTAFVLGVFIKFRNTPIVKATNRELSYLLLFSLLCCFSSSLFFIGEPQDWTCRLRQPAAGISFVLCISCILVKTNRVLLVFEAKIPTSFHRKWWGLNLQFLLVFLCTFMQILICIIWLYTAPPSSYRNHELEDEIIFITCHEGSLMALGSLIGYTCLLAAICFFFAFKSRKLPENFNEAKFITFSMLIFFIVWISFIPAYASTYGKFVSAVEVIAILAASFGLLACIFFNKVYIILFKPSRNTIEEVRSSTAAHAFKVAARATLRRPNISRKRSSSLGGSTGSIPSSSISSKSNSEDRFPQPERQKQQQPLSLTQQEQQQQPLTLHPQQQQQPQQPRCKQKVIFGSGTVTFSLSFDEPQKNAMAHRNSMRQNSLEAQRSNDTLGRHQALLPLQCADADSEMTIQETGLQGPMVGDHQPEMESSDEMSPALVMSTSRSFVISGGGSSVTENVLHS
Assay: IP-One assay, HEK293T transiently transfected
Assay type: cell-based

[Ca+2] [Ca^2+]
EC50 (Ca^2+ alone): 6.6 mM | pEC50 ± S.E.M. (Ca^2+ alone): 2.18 ± 0.01 | Max ± S.E.M. (Ca^2+ alone, normalized to maximum response of WT CaSR): 97 ± 3.4% | EC50 (Ca^2+ with 1 μM NPS R-568): 2.89 mM | pEC50 ± S.E.M. (Ca^2+ with 1 μM NPS R-568): 2.54 ± 0.02 | Max ± S.E.M. (Ca^2+ with 1 μM NPS R-568, normalized to maximum response with Ca^2+ alone for the construct): 99 ± 11% | EC50 (Ca^2+ with 5 μM NPS 2143): 8.17 mM | pEC50 ± S.E.M. (Ca^2+ with 5 μM NPS 2143): 2.09 ± 0.004 | Max ± S.E.M. (Ca^2+ with 5 μM NPS 2143, normalized to maximum response with Ca^2+ alone for the construct): 70 ± 8.1%
